The target in the test is S-adenosylmethionine synthase isoform type-2 (Homo sapiens, UniProt P31153). Nature of the test: Enzymatic Activity Test. Here is the method: The specific steps were as follows: The compounds having the test starling concentration of 1 uM or 10 uM were diluted into 10 concentration points in a 3-fold gradient. 250 nL of the solutions of the compounds to be tested with 10 different concentrations were taken and added into a 384 well plate for later use. 20 ug/mL of MAT2a enzyme solution was prepared with Assay buffer (50 mM Tris, 50 mM KCl, 10 mM MgCl2, 0.05% polyoxyethylene lauryl ether, pH 8.0). 15 uL of the MAT2a enzyme solution at 20 ug/mL was add into the wells of the compounds to be tested at different concentrations; and 15 uL of Assay buffer was added into the negative control well. An incubation was carried out for 15 minutes after shaking for mixing well. A mixed substrate solution (comprising 400 uM ATP and 600 uM L-Methionine) was prepared with Assay buffer. 10 uL of the mixed substrate solution was added to the positive control well, the compound to be tested well, and the negative control well, respectively, and the reaction began, for a reaction time of 150 min. Then, 50 uL of the reaction stop solution (BIOMOL Green Reagent Enzo lifesciences, Cargo No. BML-AK111-1000) was added to stop the reaction, followed by being centrifuged at 1000 rpm for 60 s and then being incubated for 15 min. OD620 was read and data were processed.
Chain of S-adenosylmethionine synthase isoform type-2 (P31153 whole entry, canonical isoform): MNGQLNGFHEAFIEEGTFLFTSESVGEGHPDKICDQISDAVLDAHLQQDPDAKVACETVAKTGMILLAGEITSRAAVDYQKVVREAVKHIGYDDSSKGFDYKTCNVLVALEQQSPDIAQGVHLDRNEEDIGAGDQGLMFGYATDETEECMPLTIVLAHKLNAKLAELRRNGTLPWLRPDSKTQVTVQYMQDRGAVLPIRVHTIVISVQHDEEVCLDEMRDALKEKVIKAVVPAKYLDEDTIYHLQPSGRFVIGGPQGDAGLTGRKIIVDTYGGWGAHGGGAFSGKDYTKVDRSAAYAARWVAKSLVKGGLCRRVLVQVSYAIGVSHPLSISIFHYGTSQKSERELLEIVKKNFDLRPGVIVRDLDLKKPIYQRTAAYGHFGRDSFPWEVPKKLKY

As to `CNc1c(-c2ccsc2)c(=O)n(-c2ccccc2)c2nc(C(F)(F)F)ccc12` [US20240228491, Example 4], half-maximal inhibition (IC50) was put at 20.2 nM.

Source of the values: BindingDB's records for patent US20240228491 (Scinnohub Pharmaceutical, 2024).
